# Tests used:
# SCK cells = assay: Growth response, MTT dye conversion assay; assay type: cell-based, murine; details: FIG. 8; 48 hours; compared with cisplatin
# NCI-H522 = assay: NCI multiple cell line test (SRB); assay type: cell-based, human; details: NCI-H522 (Non-Small Cell Lung Cancer), 48 h
# KM12 = assay: NCI multiple cell line test (SRB); assay type: cell-based, human; details: KM12 (Colon Cancer), 48 h
# SK-MEL-2 = assay: NCI multiple cell line test (SRB); assay type: cell-based, human; details: SK-MEL-2 (Melanoma), 48 h
# ACHN = assay: NCI multiple cell line test (SRB); assay type: cell-based, human; details: ACHN (Renal Cancer), 48 h
# HOP-92 = assay: NCI multiple cell line test (SRB); assay type: cell-based, human; details: HOP-92 (Non-Small Cell Lung Cancer), 48 h
# HS 578T = assay: NCI multiple cell line test (SRB); assay type: cell-based, human; details: HS 578T (Breast Cancer), 48 h
# Lewis murine lung cells = assay: Growth response, MTT dye conversion assay; assay type: cell-based; details: FIG. 9; mouse lung cell line
# BT-549 = assay: NCI multiple cell line test (SRB); assay type: cell-based, human; details: BT-549 (Breast Cancer), 48 h
# H226 cells = assay: Growth response, MTT dye conversion assay; assay type: cell-based, human
# HCT-116 = assay: NCI multiple cell line test (SRB); assay type: cell-based, human; details: HCT-116 (Colon Cancer), 48 h
# IGROV1 = assay: NCI multiple cell line test (SRB); assay type: cell-based, human; details: IGROV1 (Ovarian Cancer), 48 h
# TK-10 = assay: NCI multiple cell line test (SRB); assay type: cell-based, human; details: TK-10 (Renal Cancer), 48 h
# U251 = assay: NCI multiple cell line test (SRB); assay type: cell-based, human; details: U251 (CNS Cancer), 48 h
# HOP-92 cells = assay: Growth response, MTT dye conversion assay; assay type: cell-based, human; details: low doses (FIG. 12 as printed)
# SF-295 = assay: NCI multiple cell line test (SRB); assay type: cell-based, human; details: SF-295 (CNS Cancer), 48 h
# 786-0 = assay: NCI multiple cell line test (SRB); assay type: cell-based, human; details: 786-0 (Renal Cancer), 48 h
# NCI-H23 = assay: NCI multiple cell line test (SRB); assay type: cell-based, human; details: NCI-H23 (Non-Small Cell Lung Cancer), 48 h
# K-562 = assay: NCI multiple cell line test (SRB); assay type: cell-based, human; details: K-562 (Leukemia), 48 h
# [1] = test system: human endothelial vein cells (HUVECs); assay: Growth response, MTT dye conversion assay; assay type: cell-based; details: FIG. 6; 48 hours; compared with cisplatin
# [2] = Homo sapiens, read-out: −log10GI50 (converted)
compound,measurement,setting,value
COC(=O)C1=C(C(=O)OC)SC2(S1)C(C(=O)OC)=C(C(=O)OC)SC1=C2c2cccc(OC)c2N(C(=O)CN2C(=O)CCC2=O)C1(C)C [MT477],growth response,SCK cells,more effective than cisplatin
same,IC50,NCI-H522; [2],9330 nM
same,−log10LC50,NCI-H522,* (effect not reached at maximum dose of 0.05 millimolar)
same,−log10TGI,NCI-H522,4.31 molar
same,IC50,KM12; [2],2290 nM
same,−log10LC50,KM12,* (effect not reached at maximum dose of 0.05 millimolar)
same,−log10TGI,KM12,* (effect not reached at maximum dose of 0.05 millimolar)
same,IC50,SK-MEL-2; [2],4680 nM
same,−log10LC50,SK-MEL-2,* (effect not reached at maximum dose of 0.05 millimolar)
same,−log10TGI,SK-MEL-2,4.41 molar
same,−log10LC50,ACHN,5.5 molar
same,−log10TGI,ACHN,5.77 molar
same,IC50,ACHN; [2],891 nM
same,−log10LC50,HOP-92,4.6 molar
same,−log10TGI,HOP-92,5.21 molar
same,IC50,HOP-92; [2],1660 nM
same,−log10LC50,HS 578T,* (effect not reached at maximum dose of 0.05 millimolar)
same,−log10TGI,HS 578T,4.68 molar
same,IC50,HS 578T; [2],6610 nM
same,growth response,Lewis murine lung cells,effective in human and mouse cell lung lines
same,−log10LC50,BT-549,* (effect not reached at maximum dose of 0.05 millimolar)
same,−log10TGI,BT-549,4.86 molar
same,IC50,BT-549; [2],3550 nM
same,growth response,"H226 cells; FIG. 5, 48 hours, compared with cisplatin",more effective than cisplatin
same,growth response at low concentrations,"H226 cells; H226 cells, low doses (FIG. 11 as printed)","effective even at very low doses, including micromolar dosages"
same,−log10LC50,HCT-116,5.48 molar
same,−log10TGI,HCT-116,5.75 molar
same,IC50,HCT-116; [2],955 nM
same,IC50,"IGROV1; Homo sapiens, IGROV-1, read-out: −log10GI50 (converted)",17800 nM
same,−log10LC50,IGROV1,* (effect not reached at maximum dose of 0.05 millimolar)
same,−log10TGI,IGROV1,4.3 molar
same,IC50,TK-10; [2],1580 nM
same,−log10LC50,TK-10,4.75 molar
same,−log10TGI,TK-10,5.34 molar
same,IC50,"U251; Homo sapiens, U-251, read-out: −log10GI50 (converted)",2000 nM
same,−log10LC50,U251,4.72 molar
same,−log10TGI,U251,5.14 molar
same,growth response at low concentrations,HOP-92 cells,"effective even at very low doses, including micromolar dosages"
same,IC50,SF-295; [2],9550 nM
same,−log10LC50,SF-295,* (effect not reached at maximum dose of 0.05 millimolar)
same,−log10TGI,SF-295,4.56 molar
same,−log10LC50,786-0,5.47 molar
same,−log10TGI,786-0,5.76 molar
same,IC50,786-0; [2],871 nM
same,IC50,NCI-H23; [2],955 nM
same,−log10LC50,NCI-H23,5.42 molar
same,−log10TGI,NCI-H23,5.72 molar
same,IC50,"K-562; Homo sapiens, K562, read-out: −log10GI50 (converted)",1620 nM
same,−log10LC50,K-562,* (effect not reached at maximum dose of 0.05 millimolar)
same,−log10TGI,K-562,4.99 molar
same,cytotoxicity profile (growth response),[1],cytotoxicity profile that is similar to cisplatin

# Source: patent US7652029B2, “Therapeutic compound and treatments” (priority 2004, dated 2010)
